Experimental data: patent US4386075A, “Renally active tetrapeptides” (SmithKline Beckman Corporation, priority 1982, dated 1983)

What was measured:
[1] = tested on: anesthetized dogs; assay: anesthetized dog infusion test (MAP, RBF, RVR, HR); type: in vivo; settings: for % change HR (heart rate) / % change MAP (mean arterial blood pressure) / % change RBF (renal blood flow) / % change RVR (renal vascular resistance): 1 dog
Description: In the anesthetized dog protocol discussed above this compound gave the following data: […]

[2] = secondary test
[3] = tested on: spontaneously hypertensive rat; settings: in vivo
[4] = tested on: toad bladder; settings: toad bladder test
[5] = 300 μg/kg/min, anesthetized dog, cumulative effects

## 4-(4-hydroxyphenyl)-butyryl-L-propyl-D,L-α-methylphenylalanyl-glycyl-L-proline [Example 2]
[1]; infusion 3 μg/kg/min
  % change HR (heart rate): 6%
  % change MAP (mean arterial blood pressure): -5%
  % change RBF (renal blood flow): 17%
  % change RVR (renal vascular resistance): -18%
[1]; infusion 30 μg/kg/min
  % change HR (heart rate): 10%
  % change MAP (mean arterial blood pressure): -9%
  % change RBF (renal blood flow): 16%
  % change RVR (renal vascular resistance): -21%
[1]; infusion 300 μg/kg/min
  % change HR (heart rate): 6%
  % change MAP (mean arterial blood pressure): -6%
  % change RBF (renal blood flow): 14%
  % change RVR (renal vascular resistance): -17%
[1]; measured after the normal period of the test, increased from 127 ml/min
  renal blood flow, cumulative effect: 162 mL/min
[1]; measured after the normal period of the test, predrug level 140 BPM
  cardiac rate (HR), cumulative effect: 105 BPM
[2]
  ED15: 1.9 µg/kg
[3]
  activity in spontaneously hypertensive rat protocol: not active
  diuresis in spontaneously hypertensive rat protocol: slight water diuresis
[4]
  reversal of antidiuretic hormone activity: inactive

## NCCc1ccc(O)c(O)c1 [Dopamine, reference compound]
[1]; dog test procedure
  ED15: about 3 mcg/kg/min
[1]; infusion 3 μg/kg/min
  % change HR (heart rate): 2%
  % change MAP (mean arterial blood pressure): -16%
  % change RBF (renal blood flow): 28%
  % change RVR (renal vascular resistance): -34%
[2]
  ED15: 3.5 µg/kg

## N-4-(4-hydroxyphenyl)-butyryl-L-prolyl-D-phenylalanyl-glycyl-L-proline [Example 3]
[1]; [5]
  cumulative effect HR: -8
  cumulative effect MAP: 0
  cumulative effect RBF: +22
  cumulative effect RVR: -18
